Some results are limits rather than exact numbers.

For this experiment, the target named is PIK3CA (human) (UniProt P42336). Put plainly: Assessment of PIK3CA Kinase Activity.
PIK3CA (human), sequence (P42336 whole entry, looked up): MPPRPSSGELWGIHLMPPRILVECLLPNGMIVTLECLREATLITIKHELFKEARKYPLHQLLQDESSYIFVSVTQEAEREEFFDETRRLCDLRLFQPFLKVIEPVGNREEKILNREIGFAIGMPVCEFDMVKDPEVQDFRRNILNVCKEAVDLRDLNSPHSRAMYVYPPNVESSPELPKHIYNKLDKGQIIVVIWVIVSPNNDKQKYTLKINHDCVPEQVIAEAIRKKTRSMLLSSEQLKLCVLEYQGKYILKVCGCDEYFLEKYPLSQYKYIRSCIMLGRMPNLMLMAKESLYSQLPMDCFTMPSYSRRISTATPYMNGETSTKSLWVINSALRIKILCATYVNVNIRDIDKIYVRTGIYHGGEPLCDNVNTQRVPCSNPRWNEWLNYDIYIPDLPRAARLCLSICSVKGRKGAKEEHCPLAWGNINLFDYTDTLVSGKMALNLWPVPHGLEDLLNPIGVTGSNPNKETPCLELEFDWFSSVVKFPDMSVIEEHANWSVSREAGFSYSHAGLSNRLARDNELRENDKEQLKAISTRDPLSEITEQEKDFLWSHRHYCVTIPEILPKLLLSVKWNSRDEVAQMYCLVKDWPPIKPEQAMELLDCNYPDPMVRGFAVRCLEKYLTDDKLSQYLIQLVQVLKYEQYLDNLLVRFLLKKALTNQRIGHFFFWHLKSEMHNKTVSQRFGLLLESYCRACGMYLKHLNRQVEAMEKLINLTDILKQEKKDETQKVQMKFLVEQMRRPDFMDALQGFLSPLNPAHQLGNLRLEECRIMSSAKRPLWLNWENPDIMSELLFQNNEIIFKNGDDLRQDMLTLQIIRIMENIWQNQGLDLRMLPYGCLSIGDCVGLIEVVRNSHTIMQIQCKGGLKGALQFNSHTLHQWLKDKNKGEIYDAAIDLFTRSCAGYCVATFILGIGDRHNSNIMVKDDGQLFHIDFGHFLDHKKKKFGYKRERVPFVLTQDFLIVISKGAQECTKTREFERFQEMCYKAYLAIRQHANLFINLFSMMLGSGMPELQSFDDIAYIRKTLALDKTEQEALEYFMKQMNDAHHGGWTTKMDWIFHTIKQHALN
In the case of `CC(C)n1ncnc1-c1cc2n(n1)-c1cc(C(=O)N3CCC(O)CC3)ccc1OCC2`, the IC50 (in general, the concentration at which inhibition is half-maximal) was less than 1000 nM.

Turning to `CC(C)n1ncnc1-c1cn2c(n1)-c1cc(Br)ccc1OCC2`, the IC50 is less than 1000 nM.

In turn, `CC(C)n1ncnc1-c1cn2c(n1)-c1cnc(N3CCN(CC(N)=O)CC3)cc1OCC2` displayed an IC50 of less than 1000 nM.

In turn, `CC(C)n1ncnc1-c1cn2c(n1)-c1ccc(CC(N)=O)cc1OCC2` displayed an IC50 of less than 1000 nM.

As to `CC(C)C(Oc1cc2c(cn1)-c1nc(-c3ncnn3C(C)C)cn1CCO2)C(N)=O` (configuration not stated), the IC50 is less than 1000 nM.

Compound `CC(C)n1nccc1-c1cn2c(n1)-c1ccc(CNC(N)=O)cc1OCC2` showed an IC50 of less than 1000 nM.

`CC(C)n1ncnc1-c1cn2c(n1)-c1cc(-c3ccc(Cl)cc3)ccc1OCC2` displayed an IC50 of less than 1000 nM.

On to `Cc1nc(-c2cn3c(n2)-c2ccc(C#N)cc2OCC3)n(C(C)C)n1`, for which the IC50 is less than 1000 nM.

For `Cc1nc(-c2cn3c(n2)-c2ccc(-c4cnc(N(C)C)nc4)cc2OCC3)n(C(C)C)n1`, the IC50 is less than 1000 nM.

As to `CC(C)n1ncnc1-c1cn2c(n1)-c1ccc(-c3ccccc3S(C)(=O)=O)cc1OCC2`, the IC50 is less than 1000 nM.

In turn, `NC(=O)C1CC1c1ccc2c(c1)OCCn1cc(-c3ncnn3CC(F)(F)F)nc1-2` (configuration not stated) gave an IC50 of less than 1000 nM.

In turn, `Nc1nc(-c2cn3c(n2)-c2cc(F)ccc2OCC3)n(CC(F)(F)F)n1` returned an IC50 of less than 1000 nM.

Take `CC(C)n1ncnc1-c1cn2c(n1)-c1ccc(C3CN(CC(N)=O)C3)cc1OCC2`: the IC50 was less than 1000 nM.

Compound `O=C(c1ccc2c(c1)-c1nc(-c3ncnn3-c3ccc(F)cc3F)cn1CCO2)N1CCN(CCO)CC1` came in with a concentration for half-maximal inhibition (IC50) of less than 1000 nM.

In turn, `Cc1nc(-c2cn3c(n2)-c2ccc(Br)cc2OCC3)n(C(C)C)n1` showed an IC50 of less than 1000 nM.

Turning to `Fc1ccc(-n2ncnc2-c2cn3c(n2)-c2cnc(NCc4ncc[nH]4)cc2OCC3)c(F)c1`, the IC50 was less than 1000 nM.

As to `CC(C)n1ncnc1-c1cn2c(n1)-c1cnc(NCC(N)=O)cc1OCC2`, the IC50 was less than 1000 nM.

Take `CC(C)n1ncnc1-c1cn2c(n1)-c1ccc(C3CCN(C(C)(C)C(N)=O)CC3)cc1OCC2`: the IC50 is less than 1000 nM.

In the case of `CC(C)n1ncnc1-c1cn2c(n1)-c1ccc(N3CCN(CC(=O)N(C)C)CC3)nc1OCC2`, the IC50 was less than 1000 nM.

In turn, `CC(C)n1nc(N)nc1-c1cn2c(n1)-c1ccc(-c3cncc(F)c3)cc1OCC2` yielded an IC50 of less than 1000 nM.

`CC(C)n1ncnc1-c1cn2c(n1)-c1ccc(C3CCN(CCS(=O)(=O)N(C)C)CC3)cc1OCC2` yielded a half-maximal inhibitory concentration (IC50) of less than 1000 nM.

`O=C(c1ccc2c(c1)-c1nc(-c3ncnn3CC(F)(F)F)cn1CCO2)N1CCC(O)CC1`: the IC50 is less than 1000 nM.

On to `CNC(=O)CN1CC(c2ccc3c(c2)OCCn2cc(-c4ncnn4C(C)C)nc2-3)C1`, for which the IC50 is less than 1000 nM.

As to `Cc1nc(-c2cn3c(n2)-c2cnc(N4CCC[C@H]4C(N)=O)cc2OCC3)n(CC(F)(F)F)n1`, the IC50 is less than 1000 nM.

Consider `CC(C)n1ncnc1-c1cc2n(n1)-c1cc(C3CN(CCO)C3)ccc1OCC2`, for which the IC50 is less than 1000 nM.

Turning to `Cc1nc(-c2cn3c(n2)-c2ccc(-c4cn[nH]c4)cc2OCC3)n(C(C)C)n1`, the IC50 was less than 1000 nM.

As for `Cc1nc(-c2cn3c(n2)-c2cnc(N)cc2OCC3)n(C(C)C)n1`, the IC50 is less than 1000 nM.

Consider `CC(CO)Nc1cc2c(cn1)-c1nc(-c3ncnn3CC(F)(F)F)cn1CCO2` (configuration not stated), for which the IC50 is less than 1000 nM.

`CC(C)n1ncnc1-c1cn2c(n1)-c1ccc(N3CC(C(N)=O)C3)nc1OCC2` gave an IC50 of less than 1000 nM.

Take `Cc1nc(-c2cn3c(n2)-c2cnc(N4CC[C@H](O)[C@H]4C(N)=O)cc2OCC3)n(C(C)C)n1`: the IC50 is less than 1000 nM.

The compound `CC(C)[C@@H](Oc1ccc2c(c1)OCCn1cc(-c3ncnn3CC(F)(F)F)nc1-2)C(N)=O` yielded an IC50 of less than 1000 nM.

`CC(C)n1ncnc1-c1cn2c(n1)-c1ccc(N3CC(F)(F)C[C@H]3C(N)=O)cc1OCC2`: the half-inhibitory concentration (IC50) is less than 1000 nM.

Take `Cc1nc(-c2cn3c(n2)-c2ccc(CC(N)=O)cc2OCC3)n(C(C)C)n1`: the IC50 was less than 1000 nM.

Regarding `CC(C)n1ncnc1-n1cc2c(n1)-c1cc(C(=O)N3CCNCC3)ccc1OCC2`, the IC50 is less than 1000 nM.

In turn, `CC(C)n1ncnc1-c1cn2c(n1)-c1cnc(N3CCN(CC(=O)N(C)C)CC3)cc1OCC2` showed a concentration for half-maximal inhibition (IC50) of less than 1000 nM.

Regarding `CS(=O)(=O)CCNC(=O)c1ccc2c(c1)-c1nc(-c3ncnn3CC(F)(F)F)cn1CCO2`, the IC50 was less than 1000 nM.

`CC(C)(O)CN1CCC(c2ccc3c(c2)-c2nn(-c4ncnn4-c4ccc(F)cc4F)cc2CCO3)CC1` gave an IC50 of less than 1000 nM.

In the case of `CNC(=O)c1ccc2c(c1)OCCn1cc(-c3ncnn3-c3ccc(F)cc3F)nc1-2`, the IC50 is less than 1000 nM.

Regarding `CCc1ccccc1-c1ccc2c(c1)OCCn1cc(-c3ncnn3C(C)C)nc1-2`, the IC50 was less than 1000 nM.

`CC(C)n1ncnc1-c1cn2c(n1)-c1cc(-c3cncnc3)ccc1OCC2` gave an IC50 of less than 1000 nM.

Compound `C[C@@H]1CN(C(=O)c2ccc3c(c2)-c2nc(-c4ncnn4CC(F)(F)F)cn2CCO3)C[C@H](C)N1` registered an IC50 of less than 1000 nM.

`CC(C)n1nccc1-c1cn2c(n1)-c1cnc(N3CCC[C@H]3C(N)=O)cc1OCC2`: the IC50 was less than 1000 nM.

As for `Cc1nc(-c2cn3c(n2)-c2cc(-c4cc[nH]c(=O)c4)ccc2OCC3)n(C(C)C)n1`, the IC50 was less than 1000 nM.

As to `CC(C)n1nccc1-c1cn2c(n1)-c1ccc(CN)cc1OCC2`, the half-inhibitory concentration (IC50) is less than 1000 nM.

`Nc1cc2c(cn1)-c1nc(-c3ncnn3CC(F)(F)F)cn1CCO2`: the IC50 is less than 1000 nM.

For the compound `CC(C)n1ncnc1-c1cc2n(n1)-c1cc(C3CN(S(C)(=O)=O)C3)ccc1OCC2`, the IC50 is less than 1000 nM.

Consider `CC(C)n1nc(CO)nc1-c1cn2c(n1)-c1ccc(-c3cnn(CC(C)(C)O)c3)cc1OCC2`, for which the IC50 was less than 1000 nM.

The compound `Cc1nc(-c2cn3c(n2)-c2ccccc2OCC3)n(C(C)C)n1` had an IC50 of less than 1000 nM.

The compound `CC(C)n1ncnc1-c1cn2c(n1)-c1cnc(N3CCC[C@@H]3C(N)=O)cc1OCC2` displayed a concentration for half-maximal inhibition (IC50) of less than 1000 nM.

In the case of `COCc1nc(-c2cn3c(n2)-c2ccc(-c4cnn(CC(C)(C)O)c4)cc2OCC3)n(C(C)C)n1`, the IC50 is less than 1000 nM.

The compound `CC(C)n1nc(N)nc1-c1cn2c(n1)-c1cc(-c3ccccc3)ccc1OCC2` displayed an IC50 of less than 1000 nM.

In the case of `Cc1nc(-c2cn3c(n2)-c2ccc(OC4COC4)cc2OCC3)n(C(C)C)n1`, the IC50 is less than 1000 nM.

In turn, `CC[C@H](Oc1ccc2c(c1)OCCn1cc(-c3ncnn3CC(F)(F)F)nc1-2)C(N)=O` registered a half-maximal inhibitory concentration (IC50) of less than 1000 nM.

`CC(C)n1ncnc1-c1cn2c(n1)-c1ccc(O[C@@H](CCO)C(N)=O)cc1OCC2` gave a concentration for half-maximal inhibition (IC50) of less than 1000 nM.

For `Cc1nc(-c2cn3c(n2)-c2ccc(C4CC4)cc2OCC3)n(C(C)CO)n1` (configuration not stated), the IC50 was less than 1000 nM.

`CC(C)n1ncnc1-c1cn2c(n1)-c1ccc(C3CCN(C(C)(C)CO)CC3)cc1OCC2` gave an IC50 of less than 1000 nM.

Turning to `Nc1nc(-c2cn3c(n2)-c2cc(C(F)(F)F)ccc2OCC3)n(CC(F)(F)F)n1`, the half-maximal inhibitory concentration (IC50) is less than 1000 nM.

`CC(C)n1ncnc1-c1cn2c(n1)-c1cnc(N3CCC(O)CC3)cc1OCC2` showed an IC50 of less than 1000 nM.

Turning to `CC(C)n1ncnc1-c1cc2n(n1)-c1cc(C3CN(CC(N)=O)C3)ccc1OCC2`, the IC50 was less than 1000 nM.

Consider `CC(C)n1ncc(C#N)c1-c1cn2c(n1)-c1ccc(C(N)=O)cc1OCC2`, for which the IC50 is less than 1000 nM.

Take `CC(C)n1ncnc1-c1cc2n(n1)-c1cc(C3CN(CCS(C)(=O)=O)C3)ccc1OCC2`: the IC50 was less than 1000 nM.

Regarding `CN(C)c1cc2c(cn1)-c1nc(-c3ncnn3-c3ccccc3Cl)cn1CCO2`, the IC50 is less than 1000 nM.

The compound `CC(C)n1ncnc1-c1cn2c(n1)-c1ccc(-c3ccc(Cl)cc3)cc1OCC2` returned an IC50 of less than 1000 nM.

`CC(C)n1ncnc1-c1cn2c(n1)-c1ccc(C3CN(CCS(=O)(=O)N(C)C)C3)cc1OCC2` showed an IC50 of less than 1000 nM.

Turning to `CC(C)n1ncnc1-c1cn2c(n1)-c1cnc(N3CCC[C@@]3(C)C(N)=O)cc1OCC2`, the half-inhibitory concentration (IC50) was less than 1000 nM.

`CC(C)n1nc(CC(N)=O)nc1-c1cn2c(n1)-c1ccc(Br)cc1OCC2` gave an IC50 of less than 1000 nM.

Compound `Cc1nc(-c2cn3c(n2)-c2cnc(NCC(N)=O)cc2OCC3)n(CC(F)(F)F)n1` had a half-inhibitory concentration (IC50) of less than 1000 nM.

In the case of `CS(=O)(=O)CCN1CCC(c2ccc3c(c2)-c2nn(-c4ncnn4-c4ccc(F)cc4F)cc2CCO3)CC1`, the IC50 is less than 1000 nM.

For the compound `CCc1ccc2c(c1)OCCn1cc(-c3nc(C)nn3C(C)C)nc1-2`, the IC50 is less than 1000 nM.

`Clc1ccc(-c2ccc3c(c2)OCCn2cc(-c4ncnn4-c4ccccc4Cl)nc2-3)cc1` returned an IC50 of less than 1000 nM.

As for `NC(=O)c1ccc2c(c1)OCCn1cc(-c3ncnn3-c3ccccc3Cl)nc1-2`, the IC50 was less than 1000 nM.

As to `Cc1nc(-c2cn3c(n2)-c2ccc(C4COC4)cc2OCC3)n(C(C)C)n1`, the IC50 is less than 1000 nM.

In turn, `Cc1nc(-c2cn3c(n2)-c2ccc(-c4cncc(F)c4)cc2OCC3)n(C(C)C)n1` registered an IC50 of less than 1000 nM.

Compound `CC(C)n1ncnc1-c1cn2c(n1)-c1ccc(CC(=O)O)cc1OCC2` displayed an IC50 of less than 1000 nM.

`CC(C)n1ncnc1-c1cn2c(n1)-c1cnc(N)cc1OCC2`: the IC50 was less than 1000 nM.

In turn, `CC(C)n1nccc1-c1cn2c(n1)-c1cc(C(N)=O)ccc1OCC2` showed an IC50 of less than 1000 nM.

Compound `CC(C)n1ncnc1-c1cn2c(n1)-c1ccc(C3CN(S(=O)(=O)CCN4CC(F)C4)C3)cc1OCC2` yielded an IC50 of less than 1000 nM.

The compound `CCNC(=O)CN1CCC(c2ccc3c(c2)OCCn2cc(-c4nc(C)nn4C(C)C)nc2-3)CC1` returned an IC50 of less than 1000 nM.

Compound `Cc1nc(-c2cn3c(n2)-c2ccc(C(F)F)cc2OCC3)n(C(C)C)n1` yielded an IC50 of less than 1000 nM.

In turn, `CNC(=O)c1ccc2c(c1)-c1nn(-c3ncnn3C(C)C)cc1CCO2` registered an IC50 of less than 1000 nM.

As for `CC(C)n1ncnc1-c1cn2c(n1)-c1ccc(-c3cn[nH]c3)cc1OCC2`, the IC50 was less than 1000 nM.

`Cc1nc(-c2cn3c(n2)-c2ccc(CN)cc2OCC3)n(-c2ccc(F)cc2F)n1`: the IC50 was less than 1000 nM.

With `Cc1nc(-c2cn3c(n2)-c2ccc(F)cc2OCC3)n(C(C)C)n1`, the IC50 was less than 1000 nM.

As for `CC(C)n1ncnc1-c1cc2n(n1)-c1cc(C3CN(C(=O)CO)C3)ccc1OCC2`, the 50% inhibitory concentration (IC50) was less than 1000 nM.

As for `NC(=O)CNc1cc2c(cn1)-c1nc(-c3ncnn3CC(F)(F)F)cn1CCO2`, the IC50 was less than 1000 nM.

In turn, `CC(C)n1ncnc1-c1cn2c(n1)-c1ccc(OC3CC3)cc1OCC2` showed an IC50 of less than 1000 nM.

Consider `Cc1nc(-c2cn3c(n2)-c2cnc(N4C[C@H](F)C[C@H]4C(N)=O)cc2OCC3)n(C(C)C)n1`, for which the IC50 is less than 1000 nM.

The values are drawn from the Kinase Knowledgebase extract (Sharma et al. 2016).
